# Values quoted from earlier work, collected in patent EP4759315A1, “DRUG PREPARED FROM ORGANIC GERMANIUM COMPOUND AND GLUCOSAMINE COMPOUND, AND USE THEREOF” (Eion International Ltd., priority 2023, dated 2025).
# How the values were obtained:
# [1] = in vivo
smiles,measurement,setting,value
"O=C(O)C[CH2][Ge](=[O])[O][Ge](=[O])[CH2]CC(=O)O [Ge-132, bis(carboxyethyl)germanium sesquioxide]",No-Observable-Adverse-Effect Level (NOAEL),[1],2000 mg/kg body weight/day
same,pH of the solution,at the concentration of 1.28 g/100 ml in water,3.06-3.12
same,solubility in water,water,1.28 g/100 ml
